According to ChEMBL document CHEMBL4007475, “Green synthesis of novel spiro-indenoquinoxaline derivatives and their cholinesterases inhibition activity” (Bioorg Med Chem, 2017):

Columns and labels:
Acetylcholinesterase = Acetylcholinesterase (Homo sapiens, UniProt P22303); experiment: Inhibition of acetylcholinesterase (unknown origin) using acetylthiocholine as substrate preincubated for 20 mins followed by substrate addition by Ellmans method
HepG2 = experiment: Cytotoxicity against human HepG2 cells after 48 hrs by MTT assay; type: cell-based; details: HepG2, 48 h
Homo sapiens [1] = species on record: Homo sapiens; experiment: Selectivity index, ratio of IC50 for acetylcholinesterase (unknown origin) to IC50 for butyrylcholinesterase (unknown origin)
Cholinesterase = Cholinesterase (Homo sapiens, UniProt P06276); experiment: Inhibition of butyrylcholinesterase (unknown origin) using acetylthiocholine as substrate preincubated for 20 mins followed by substrate addition by Ellmans method
Cholinesterase, sequence (P06276 whole entry): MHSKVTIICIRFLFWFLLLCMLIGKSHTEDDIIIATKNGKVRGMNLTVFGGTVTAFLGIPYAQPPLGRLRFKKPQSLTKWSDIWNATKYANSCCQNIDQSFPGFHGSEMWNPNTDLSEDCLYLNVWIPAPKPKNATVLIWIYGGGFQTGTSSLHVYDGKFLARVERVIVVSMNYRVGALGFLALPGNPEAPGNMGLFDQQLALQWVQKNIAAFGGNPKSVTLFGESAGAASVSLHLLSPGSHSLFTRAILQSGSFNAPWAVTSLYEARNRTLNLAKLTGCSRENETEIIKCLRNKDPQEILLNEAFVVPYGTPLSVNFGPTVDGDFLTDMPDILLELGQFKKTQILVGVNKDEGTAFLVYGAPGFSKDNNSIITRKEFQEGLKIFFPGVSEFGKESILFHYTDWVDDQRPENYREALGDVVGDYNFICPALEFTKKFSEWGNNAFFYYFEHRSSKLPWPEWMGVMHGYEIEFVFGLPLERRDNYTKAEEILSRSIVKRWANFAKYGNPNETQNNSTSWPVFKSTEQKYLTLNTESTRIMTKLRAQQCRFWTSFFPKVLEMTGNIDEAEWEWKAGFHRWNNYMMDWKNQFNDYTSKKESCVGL

Homo sapiens [2] = species on record: Homo sapiens; experiment: Selectivity index, ratio of IC50 for butyrylcholinesterase (unknown origin) to IC50 for acetylcholinesterase (unknown origin)
Homo sapiens [3] = species on record: Homo sapiens; experiment: Selectivity for acetylcholinesterase (unknown origin) over butyrylcholinesterase (unknown origin)

Acetylcholinesterase, sequence (P22303 whole entry): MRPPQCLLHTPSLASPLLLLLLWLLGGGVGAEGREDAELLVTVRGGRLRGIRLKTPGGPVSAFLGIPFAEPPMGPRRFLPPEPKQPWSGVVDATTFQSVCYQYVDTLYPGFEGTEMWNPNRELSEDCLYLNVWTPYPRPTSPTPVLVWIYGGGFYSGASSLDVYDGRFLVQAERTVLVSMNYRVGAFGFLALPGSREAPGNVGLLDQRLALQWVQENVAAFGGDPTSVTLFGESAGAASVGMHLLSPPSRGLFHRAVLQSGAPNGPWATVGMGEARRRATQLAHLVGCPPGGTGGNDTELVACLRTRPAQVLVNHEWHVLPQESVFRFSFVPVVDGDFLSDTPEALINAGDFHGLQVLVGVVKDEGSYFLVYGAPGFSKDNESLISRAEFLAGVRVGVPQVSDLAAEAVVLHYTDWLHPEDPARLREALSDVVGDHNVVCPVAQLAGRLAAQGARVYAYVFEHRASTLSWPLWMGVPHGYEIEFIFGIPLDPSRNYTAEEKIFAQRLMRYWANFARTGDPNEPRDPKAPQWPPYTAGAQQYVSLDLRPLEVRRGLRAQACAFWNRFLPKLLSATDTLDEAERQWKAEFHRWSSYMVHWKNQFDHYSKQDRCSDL

N#CC1=C(N)N(Cc2ccccc2)C(NCc2ccccc2)=C([N+](=O)[O-])C12c1ccccc1-c1nc3ccc([N+](=O)[O-])cc3nc12 (stereo unspecified)
IC50 (Acetylcholinesterase): 4.4 µM
IC50 (HepG2): 167 µM
Ratio IC50 (Homo sapiens [1]): 0.483
IC50 (Cholinesterase): 9.1 µM
Ratio IC50 (Homo sapiens [2]): 2.07

N#CC1=C(N)N2CCCNC2=C([N+](=O)[O-])C12c1ccccc1-c1nc3ccccc3nc12 (stereo unspecified)
IC50 (Acetylcholinesterase): 4.2 µM
IC50 (HepG2): 174 µM
Ratio IC50 (Homo sapiens [1]): 0.411
IC50 (Cholinesterase): 10.2 µM
Ratio IC50 (Homo sapiens [2]): 2.43

Cc1cc2nc3c(nc2cc1C)C1(C(C#N)=C(N)N2CC(C)(C)CNC2=C1[N+](=O)[O-])c1ccccc1-3 (stereo unspecified)
IC50 (Acetylcholinesterase): 4 µM
IC50 (HepG2): 180 µM
Ratio IC50 (Homo sapiens [1]): 0.454
IC50 (Cholinesterase): 8.8 µM
Ratio IC50 (Homo sapiens [2]): 2.2

Cc1cc2nc3c(nc2cc1C)C1(C(C#N)=C(N)N2CCCNC2=C1[N+](=O)[O-])c1ccccc1-3 (stereo unspecified)
IC50 (Acetylcholinesterase): 5.7 µM
IC50 (HepG2): 171 µM
Ratio IC50 (Homo sapiens [1]): 0.6
IC50 (Cholinesterase): 9.5 µM
Ratio IC50 (Homo sapiens [2]): 1.67

COc1cc2c(cc1OC)C(=O)C(CC1CCN(Cc3ccccc3)CC1)C2 (stereo unspecified)
Selectivity ratio (Homo sapiens [3]): 10000

Cc1cc2nc3c(nc2cc1C)C1(C(C#N)=C(N)N(Cc2ccccc2)C(NCc2ccccc2)=C1[N+](=O)[O-])c1ccccc1-3 (stereo unspecified)
IC50 (Acetylcholinesterase): 5.8 µM
IC50 (HepG2): 174 µM
Ratio IC50 (Homo sapiens [1]): 0.651
IC50 (Cholinesterase): 8.9 µM
Ratio IC50 (Homo sapiens [2]): 1.53

CC1(C)CNC2=C([N+](=O)[O-])C3(C(C#N)=C(N)N2C1)c1ccccc1-c1nc2ccc([N+](=O)[O-])cc2nc13 (stereo unspecified)
IC50 (Acetylcholinesterase): 3.6 µM
IC50 (HepG2): 169 µM
Ratio IC50 (Homo sapiens [1]): 0.356
IC50 (Cholinesterase): 10.1 µM
Ratio IC50 (Homo sapiens [2]): 2.81

N#CC1=C(N)N2CCCNC2=C([N+](=O)[O-])C12c1ccccc1-c1nc3ccc([N+](=O)[O-])cc3nc12 (stereo unspecified)
IC50 (Acetylcholinesterase): 3.9 µM
IC50 (HepG2): 161 µM
Ratio IC50 (Homo sapiens [1]): 0.402
IC50 (Cholinesterase): 9.7 µM
Ratio IC50 (Homo sapiens [2]): 2.49

Cc1cc2nc3c(nc2cc1C)C1(C(C#N)=C(N)N2CCNC2=C1[N+](=O)[O-])c1ccccc1-3 (stereo unspecified)
IC50 (Acetylcholinesterase): 6.6 µM
IC50 (HepG2): 176 µM
Ratio IC50 (Homo sapiens [1]): 0.904
IC50 (Cholinesterase): 7.3 µM
Ratio IC50 (Homo sapiens [2]): 1.11

N#CC1=C(N)N2CCNC2=C([N+](=O)[O-])C12c1ccccc1-c1nc3ccccc3nc12 (stereo unspecified)
IC50 (Acetylcholinesterase): 6.4 µM
IC50 (HepG2): 194 µM
Ratio IC50 (Homo sapiens [1]): 0.761
IC50 (Cholinesterase): 8.4 µM
Ratio IC50 (Homo sapiens [2]): 1.31

N#CC1=C(N)N(Cc2ccccc2)C(NCc2ccccc2)=C([N+](=O)[O-])C12c1ccccc1-c1nc3ccccc3nc12 (stereo unspecified)
IC50 (Acetylcholinesterase): 5.3 µM
IC50 (HepG2): 190 µM
Ratio IC50 (Homo sapiens [1]): 0.616
IC50 (Cholinesterase): 8.6 µM
Ratio IC50 (Homo sapiens [2]): 1.62

N#CC1=C(N)N2CCNC2=C([N+](=O)[O-])C12c1ccccc1-c1nc3ccc([N+](=O)[O-])cc3nc12 (stereo unspecified)
IC50 (Acetylcholinesterase): 6.5 µM
IC50 (HepG2): 174 µM
Ratio IC50 (Homo sapiens [1]): 0.677
IC50 (Cholinesterase): 9.6 µM
Ratio IC50 (Homo sapiens [2]): 1.48

CC1(C)CNC2=C([N+](=O)[O-])C3(C(C#N)=C(N)N2C1)c1ccccc1-c1nc2ccccc2nc13 (stereo unspecified)
IC50 (Acetylcholinesterase): 4.3 µM
IC50 (HepG2): 184 µM
Ratio IC50 (Homo sapiens [1]): 0.438
IC50 (Cholinesterase): 9.8 µM
Ratio IC50 (Homo sapiens [2]): 2.28
